This passage reports IC50, melting point and tumor-growth inhibition results from article PMC7037731, “Synthesis, Anticancer Activity, and Preliminary Pharmacokinetic Evaluation of 4,4-Disubstituted Curcuminoid 2,2-bis(Hydroxymethyl)Propionate Derivatives” (Molecules, 2020).

A word on the melting point: it is the temperature of the solid-liquid transition.

In one series the test system is MDA-MB-231. Put plainly: MTT anti-proliferative assay, MDA-MB-231. It counts as cell-based. The following applies: Homo sapiens. As for the experimental part: (§1) These compounds, along with all newly synthesized compounds, were screened for anti-proliferative activity against the same TNBC and colon cancer cell lines.
(§2) Cell viability was evaluated by measuring the reduction in MTT to yield blue formazan. Cells were cultured in 96-well plates, allowed to attach overnight, and then treated with compounds. After treatment, MTT solution (1 mg/mL) was added to each well, and plates were incubated for another 2 h. Medium was removed, blue formazan was dissolved in DMSO, and the absorbance was read at 570 nm by Multiskan Go spectrophotometer (Thermo Scientific, Madison, WI, USA).
A general note: Tetrazolium assays rely on reduction of a dye to a coloured formazan, in cell work by metabolically active cells.

In the next series the test system is HCT-116. The series is described as follows: MTT anti-proliferative assay, HCT-116. The format is cell-based. The following applies: Homo sapiens. As for the experimental part: as §1, §2
Series [1] has as its system HCT-116 colon tumor xenograft. Put plainly: In vivo antitumor activity, HCT-116 colon tumor xenograft bearing nude mice. The conditions noted are these: 30 mg/kg i.p. QOD, positive control. Also noted: species or system nu/nu mice. As for the experimental part:
The therapeutic effect of 2 was evaluated on HCT-116 colon tumor xenograft bearing nude mice. The oral administration of 2 at doses of 50, 100, or 150 mg/kg bw per day were performed after tumors reached approximately 100 mm^3 and continued for 30 consecutive days. 5-Fluorouracil treatment (30 mg/kg bw, i.p., QOD) was used as a positive control. […] There was a clear dose- and time-dependent inhibitory effect on tumor size in the other two groups, in which at 50 and 150 mg/kg doses the volume of the HCT-116 colon tumor was reduced to 73% and 40% of the control, respectively (Figure 2). The body weight of the mice was recorded prior to dosing every 3 d, and the average body weight of each group is depicted in Figure 3. Otherwise, they were monitored for visible signs of toxicity and behavioral changes 1 h after each administration.
Male nu/nu mice (5 weeks old) from National Laboratory Animal Center (Taipei, Taiwan) were maintained under the procedures and guidelines provided by the Institutional Animal Care and Use Committee of the National Health Research Institutes (Taipei, Taiwan). All experiments were supervised under the Institutional Animal Care and Use Committee, China Medical University, Taichung, Taiwan with a protocol number ([…]-2018-278). HCT-116 colon cancer cells (5 × 10^6 cells per mouse) were suspended in 0.1 mL of Matrigel solution (50% v/v Matrigel in PBS) and inoculated into the mammary fat pads of the mice. When the tumor size reached 100 mm^3, the tumor-bearing mice were randomly divided into four groups for treating with vehicle (5% ethanol and 10% tween 80 in 85% saline, 0.1 mL) and 2 (p.o. 50, 100 and 150 mg/kg/day body weight) respectively. Compounds was administered via oral route daily for 30 days. 5-Fluorouracil-treated group (i.p. 30 mg/kg) is the positive control. Tumor size and mouse body weight were measured once every 3 days, and tumor volume (mm^3) was calculated using the equation: length × (width)^2 × 0.5. At the end of experiments, mice were sacrificed.

The mark [2] stands for this setting: 48 h treatment, MTT, mean ± SD of at least three experiments, read-out: IC50 (M)/ 48 h MDA-MB-231.
Setting [3] is: 48 h treatment, MTT, mean ± SD of at least three experiments, read-out: IC50 (M)/ 48 h HCT-116.
Where [4] appears, read: anti-proliferative screening, read-out: IC50 MDA-MB-231.
Setting [5] is: anti-proliferative screening, read-out: IC50 HCT-116.

Read-outs that look alike come from different tables or passages of the source.

Take `CCC(CC)(C(=O)/C=C/c1ccc(OC(=O)C(C)(CO)CO)c(OC)c1)C(=O)/C=C/c1ccc(OC(=O)C(C)(CO)CO)c(OC)c1` [Compound 3]: the figures for the IC50 with MDA-MB-231 (setting [2]) and with HCT-116 (setting [3]) were 3.02e-06 ± 1.5e-07 M and 1.93e-06 ± 1e-08 M, respectively.
As to `COc1cc(CCC(O)C(C)(C)C(O)CCc2ccc(O)c(OC)c2)ccc1O` (stereo not drawn) [Compound 21, 1,7-bis(4-Hydroxy-3-methoxyphenyl)-4,4-dimethylheptane-3,5-diol], the IC50 in the series with MDA-MB-231 (setting [4]) and in the series on HCT-116 (setting [5]) was not below 0.0001 M each time.
As for `CCCCC(CCCC)(C(=O)/C=C/c1ccc(O)c(OC)c1)C(=O)/C=C/c1ccc(O)c(OC)c1` [Compound 16, (1E,6E)-4,4-Dibutyl-1,7-bis(4-hydroxy-3-methoxyphenyl)hepta-1,6-diene-3,5-dione], the melting point lay within 144 to 146 °C. Moreover, the IC50 in the series with MDA-MB-231 (setting [2]) was more than 0.0001 M. For the same compound, the IC50 in the series with HCT-116 (setting [3]) is 6.7e-05 ± 3.18e-06 M.
In turn, `CCCC(CCC)(C(=O)/C=C/c1ccc(O)c(OC)c1)C(=O)/C=C/c1ccc(O)c(OC)c1` [Compound 15, (1E,6E)-1,7-bis(4-Hydroxy-3-methoxyphenyl)-4,4-dipropylhepta-1,6-diene-3,5-dione] showed a melting point of 137 to 139 °C. Also, the IC50 in the series with MDA-MB-231 (setting [2]) amounted to 1.82e-05 ± 5.3e-07 M. The IC50 in the series with HCT-116 (setting [3]) worked out at 1.07e-05 ± 1.63e-06 M.
`C#CCC(CC#C)(C(=O)/C=C/c1ccc(O)c(OC)c1)C(=O)/C=C/c1ccc(O)c(OC)c1` [Compound 5m, (1E,6E)-1,7-bis(4-Hydroxy-3-methoxyphenyl)-4,4-di(prop-2-yn-1-yl)hepta-1,6-diene-3,5-dione]: the figures for the IC50 in the series on MDA-MB-231 (setting [2]) and in the series with HCT-116 (setting [3]) were 3.1e-06 ± 1.5e-07 M and 1.38e-06 ± 6e-08 M, respectively.
Consider `COc1cc(/C=C/C(=O)C(C)(C)C(=O)CCc2ccc(O)c(OC)c2)ccc1O` [Compound 18, (E)-1,7-bis(4-Hydroxy-3-methoxyphenyl)-4,4-dimethylhept-1-ene-3,5-dione], for which the IC50 is 3.648e-05 ± 3.4e-07 M in the series on MDA-MB-231 (setting [4]) and 9.64e-06 ± 2.1e-07 M in the series on HCT-116 (setting [5]).
Regarding `C=CCC(CC=C)(C(=O)/C=C/c1ccc(OC(=O)C(C)(CO)CO)c(OC)c1)C(=O)/C=C/c1ccc(OC(=O)C(C)(CO)CO)c(OC)c1` [Compound 6, [(1E,6E)-4,4-Diallyl-3,5-dioxohepta-1,6-diene-1,7-diyl]bis(2-methoxy-4,1-phenylene) bis[3-hydroxy-2-(hydroxymethyl)-2-methylpropanoate]], the melting point fell in the range of 195 to 197 °C. In the series on MDA-MB-231 (setting [2]), the IC50 stood at 3.13e-06 ± 5.4e-07 M. The IC50 in the series on HCT-116 (setting [3]) was 9.2e-07 ± 6e-08 M.
`COc1cc(/C=C/C(=O)C(Cc2ccccc2)(Cc2ccccc2)C(=O)/C=C/c2ccc(O)c(OC)c2)ccc1O` [Compound 4m, (1E,6E)-4,4-Dibenzyl-1,7-bis(4-hydroxy-3-methoxyphenyl)hepta-1,6-diene-3,5-dione] displayed a melting point of 134 to 135 °C. For the same compound, the IC50 in the series on MDA-MB-231 (setting [2]) was 3.65e-05 ± 1.66e-06 M. Also, the IC50 in the series with HCT-116 (setting [3]) worked out at 9.4e-06 ± 2e-08 M.
Compound `O=c1[nH]cc(F)c(=O)[nH]1` [5-Fluorouracil, reference compound] registered a tumor-growth inhibition in series [1] of 40%.
`COc1ccc(/C=C/C(=O)C(COC(=O)C(C)(CO)CO)(COC(=O)C(C)(CO)CO)C(=O)/C=C/c2ccc(OC)c(OC)c2)cc1OC` [Compound 14, 2,2-bis[(E)-3-(3,4-Dimethoxyphenyl)acryloyl]propane-1,3-diylbis[3-hydroxy-2-(hydroxymethyl)-2-methylpropanoate]] yielded a melting point of more than 300 °C. The IC50 in the series on MDA-MB-231 (setting [2]) is 5.74e-05 ± 2.06e-06 M. For the same compound, the IC50 with HCT-116 (setting [3]) was found to be 4.01e-05 ± 1.61e-06 M.
With `COc1cc(/C=C/C(=O)CC(=O)/C=C/c2ccc(O)c(OC)c2)ccc1O` [Curcumin, (1E,6E)-1,7-bis(4-hydroxy-3-methoxyphenyl)hepta-1,6-diene-3,5-dione], the IC50 was found to be 2.21e-05 ± 2.97e-06 M with MDA-MB-231 (setting [2]) and 2.63e-05 ± 1.38e-06 M in the series with HCT-116 (setting [3]).
For `COCC(COC)(C(=O)/C=C/c1ccc(OC(=O)C(C)(CO)CO)c(OC)c1)C(=O)/C=C/c1ccc(OC(=O)C(C)(CO)CO)c(OC)c1` [Compound 11, [(1E,6E)-4,4-bis(Methoxymethyl)-3,5-dioxohepta-1,6-diene-1,7-diyl]bis(2-methoxy-4,1-phenylene) bis[3-hydroxy-2-(hydroxymethyl)-2-methylpropanoate]], the melting point is 187 to 188 °C. In the series with MDA-MB-231 (setting [2]), the IC50 is 8.49e-05 ± 1.67e-06 M. The IC50 in the series with HCT-116 (setting [3]) was found to be 6.91e-05 ± 3.11e-06 M.
With `C#CCC(CC#C)(C(=O)/C=C/c1ccc(OC(=O)C(C)(CO)CO)c(OC)c1)C(=O)/C=C/c1ccc(OC(=O)C(C)(CO)CO)c(OC)c1` [Compound 5], the IC50 was 5.87e-06 ± 1e-07 M in the series on MDA-MB-231 (setting [2]) and 5.81e-06 ± 2.3e-07 M with HCT-116 (setting [3]).
On to `COc1cc(/C=C/C(=O)C(COC(C)=O)(COC(C)=O)C(=O)/C=C/c2ccc(OC(=O)C(C)(CO)CO)c(OC)c2)ccc1OC(=O)C(C)(CO)CO` [Compound 10, [(1E,6E)-4,4-bis(Acetoxymethyl)-3,5-dioxohepta-1,6-diene-1,7-diyl]bis(2-methoxy-4,1-phenylene) bis[3-hydroxy-2-(hydroxymethyl)-2-methylpropanoate]], for which the melting point lay within 194 to 196 °C. Moreover, the IC50 with MDA-MB-231 (setting [2]) is 6.55e-06 ± 4e-08 M. For the same compound, the IC50 with HCT-116 (setting [3]) was 6.53e-06 ± 1e-08 M.
For `COc1cc(/C=C/C(=O)C(Cc2ccccc2)(Cc2ccccc2)C(=O)/C=C/c2ccc(OC(=O)C(C)(CO)CO)c(OC)c2)ccc1OC(=O)C(C)(CO)CO` [Compound 4], the IC50 in the series on MDA-MB-231 (setting [2]) is 2.45e-06 ± 2.4e-07 M; in the series with HCT-116 (setting [3]), 7.66e-06 ± 6.1e-07 M.
In turn, `COc1ccc(/C=C/C(=O)C(CO)(CO)C(=O)/C=C/c2ccc(OC)c(OC)c2)cc1OC` [Compound 12, (1E,6E)-1,7-bis(3,4-Dimethoxyphenyl)-4,4-bis(hydroxymethyl)hepta-1,6-diene-3,5-dione] showed a melting point of 174 to 176 °C. For the same compound, the IC50 in the series on MDA-MB-231 (setting [2]) came out at 5.35e-05 ± 3.45e-06 M. In addition, the IC50 in the series on HCT-116 (setting [3]) turned out to be 5.8e-05 ± 6e-07 M.
For `C=CCC(CC=C)(C(=O)/C=C/c1ccc(O)c(OC)c1)C(=O)/C=C/c1ccc(O)c(OC)c1` [Compound 6m, (1E,6E)-4,4-Diallyl-1,7-bis(4-hydroxy-3-methoxyphenyl)hepta-1,6-diene-3,5-dione], the IC50 turned out to be 6.88e-06 ± 3.6e-07 M with MDA-MB-231 (setting [2]) and 4.4e-06 ± 5.3e-07 M with HCT-116 (setting [3]).
`CCC(CC)(C(=O)/C=C/c1ccc(O)c(OC)c1)C(=O)/C=C/c1ccc(O)c(OC)c1` [Compound 3m, (1E,6E)-4,4-Diethyl-1,7-bis(4-hydroxy-3-methoxyphenyl)hepta-1,6-diene-3,5-dione] displayed a melting point of 114 to 115 °C. The IC50 in the series on MDA-MB-231 (setting [2]) was 9.12e-06 ± 4e-07 M. Besides, the IC50 with HCT-116 (setting [3]) came to 8.18e-06 ± 5.7e-07 M.
In the case of `COc1cc(CCC(=O)C(C)(C)C(=O)CCc2ccc(O)c(OC)c2)ccc1O` [Compound 19, 1,7-bis(4-Hydroxy-3-methoxyphenyl)-4,4-dimethylheptane-3,5-dione], the IC50 in the series with MDA-MB-231 (setting [4]) and in the series on HCT-116 (setting [5]) was not below 0.0001 M throughout.
Take `COc1cc(CCC(=O)C(C)(C)C(O)CCc2ccc(O)c(OC)c2)ccc1O` (stereo not drawn) [Compound 20, 5-hydroxy-1,7-bis(4-hydroxy-3-methoxyphenyl)-4,4-dimethylheptan-3-one]: the IC50 in the series on MDA-MB-231 (setting [4]) and with HCT-116 (setting [5]) was not below 0.0001 M throughout.
